In patent US11911387B2, “Vasoprotective and cardioprotective antidiabetic therapy” (Boehringer Ingelheim International GmbH, priority 2010, dated 2024):

Columns and labels:
[1] = system: isolated aortic ring segments; experiment: Direct vasodilatory effects, isometric tension recording in isolated aortic ring segments; set-up: species or system rats; conditions: cumulative concentrations 1 nM to 32 or 100 μM; versus DMSO
Experimental: FIGS. 9A and 9B show direct vasodilatory effects of gliptins. […] The data are mean±SEM of 12 (FIG. 9A) or 4 (FIG. 9B) aortic rings from 10 rats in total: p<0.05 vs. DMSO (solvent control); ^#p<0.05 vs. sita-/vildagliptin, and ^§, p<0.05 vs. saxa-/alogliptin.
Direct vasodilatory effects of gliptins are measured by the isometric tension technique in isolated aortic ring segments. […] In addition reactive oxygen and nitrogen species (RONS) formation is determined in isolated cardiac mitochondria and LPS or PDBu-triggered oxidative burst in whole blood.

[2] = system: diabetic eNOS knockout C57BL/6J mice; experiment: ARB-resistant diabetic nephropathy in diabetic eNOS knockout C57BL/6J mice, 12 weeks; assay type: in vivo
Text: Fourteen mice are used as non-diabetic controls. After 12 weeks, urine and blood are obtained and blood pressure measured.

[3] = system: diabetic eNOS ko mice; experiment: Diabetic nephropathy in STZ-diabetic eNOS ko mice, 4 weeks treatment; assay type: in vivo; conditions: STZ treated animals, linagliptin 3 mg/kg, telmisartan 1 mg/kg p.o.
Text: Endothelial damage is characteristic for type 2 diabetes and contributes to the development of end stage kidney disease. Further, vascular endothelial NO synthase (eNOS) activity is altered in T2D and genetic abnormalities in the respected gene (NOS3) are associated with the development of advanced diabetic nephropathy (DN) in patients with type 1 and type 2 diabetes. The use of low dose STZ to induce T2D in this genetic phenotype (eNOS−/−) has been recently reported (Brosius et al, JASN 2009) to be a valid experimental model for DN. Eight week old eNOS −/− mice are rendered diabetic with intraperitoneal injections of streptozotocin (100 mg/kg per day for two consecutive days). Development of diabetes (defined by blood glucose>250 mg/dl) is verified one week after streptozotocin injection. No insulin is given because that could prevent the development of diabetic nephropathy. Mice are treated for 4 weeks with:
1) Non-diabetic eNOS ko control mice, placebo (natrosol) (n=14)
2) sham treated diabetic eNOS ko mice, placebo (natrosol) (n=17)
3) Telmisartan (p.o. 1 mg/kg) treated diabetic eNOS ko mice (n=17)
Renal function (s-creatinine, albuminuria) and blood glucose level are detected.

[4] = system: 2K1C-rats; experiment: Two-kidney-one clip reno-vascular hypertension (2K1C) rat model, systolic blood pressure; assay type: in vivo; conditions: 3 months; telmisartan 10 mg/kg, linagliptin 89 ppm in chow
Text: We hypothesize that glucose/energy supply is particularly important in the failing heart that is characterized by cardiac hypertrophy. Inadequate energy supply is considered as one of the most important steps from compensated to decompensated left ventricular hypertrophy resulting in heart failure. A classical model of hypertension induced left ventricular hypertrophy that results on the long run in left ventricular failure and pathological remodeling is the two-kidney-one clip reno-vascular hypertension (Goldblatt) model (2K1C model).
[…]. Non-invasive, systolic blood pressure is measured in all groups to the time points (1. before treatment; 2. after 1 weeks 3. after 4 weeks; 4. after 6 weeks 5. after 12 weeks; and 6. after 6 weeks of treatment with the respective compounds.

[5] = system: superoxide formation from xanthine oxidase; experiment: Direct antioxidant effect: superoxide formation from xanthine oxidase

Row | Compound | direct vasodilatory effect (induction of vasodilation), ranking [1] | albuminuria, significance compared with diabetic controls ([2]; 12 weeks) | blood pressure ([2]; 12 weeks, mean±SEM) [mmHg] | blood pressure reduction vs diabetic controls ([2]; 12 weeks, p=0.071) [mmHg] | albuminuria (urinary albumin excretion per 24 h) ([2]; 12 weeks, telmisartan 1 mg/kg, linagliptin 3 mg/kg) [μg/24 h] | glomerulosclerosis in the kidney, histological score ([2]; compared with diabetic controls, p<0.05) | plasma neutrophil gelatinase-associated lipocalin (NGAL) levels ([2]; compared with untreated diabetic mice) | blood sugar versus placebo [3] | systolic blood pressure (RR systolic) [4] | suppression of superoxide formation [5]
1 | N[C@@H](CC(=O)N1CCn2c(nnc2C(F)(F)F)C1)Cc1cc(F)c(F)cc1F [sitagliptin] | not more efficient in the induction of vasodilation than the solvent alone control |  |  |  |  |  |  |  |  | 
2 | CCCc1nc2c(C)cc(-c3nc4ccccc4n3C)cc2n1Cc1ccc(-c2ccccc2C(=O)O)cc1 [telmisartan] |  | not statistically significant | 111.2±2.3 | 5.9 | 97.8±26.4 | not significantly different | significantly increased | No significant differences | always significant versus vehicle treated animals | 
3 | N#C[C@@H]1CCCN1C(=O)CNC12CC3CC(CC(O)(C3)C1)C2 [vildagliptin] | directly followed by alogliptin and vildagliptin |  |  |  |  |  |  |  |  | Minor (but significant) suppression
